In EPA's ToxRefDB 2:

What was measured:
rabbit [1] = conditions: Prenatal developmental toxicity study, himalayan, Oral, Gavage/Intubation, dose end: 27 GD
rat [2] = conditions: Prenatal developmental toxicity study, sprague dawley, Oral, Gavage/Intubation, dose end: 15 GD
rat [3] = conditions: Combined chronic toxicity/carcinogenicity, sprague dawley, Oral, Feed, dose end: 106 week
rat [4] = conditions: Prenatal developmental toxicity study, sprague dawley, Oral, Gavage/Intubation, dose end: 15 GD; remark: listed apart in the source
rat [5] = conditions: Prenatal developmental toxicity study, sprague dawley albino, Oral, Gavage/Intubation, dose end: 19 GD
rat [6] = conditions: Multigenerational reproductive toxicity study, wistar, Oral, Feed, dose end: 2 generation
rat [7] = conditions: Peri- and post-natal toxicity study (Segment III), wistar, Oral, Gavage/Intubation, dose end: 21 PND
rat [8] = conditions: Multigenerational reproductive toxicity study, wistar, Oral, Gavage/Intubation, dose end: 1 generation
rabbit [9] = conditions: Prenatal developmental toxicity study, new zealand white, Oral, Gavage/Intubation, dose end: 19 GD
mouse [10] = conditions: Prenatal developmental toxicity study, cd1, Oral, Gavage/Intubation, dose end: 15 GD
mouse [11] = conditions: Multigenerational reproductive toxicity study, cd1, Oral, Water, dose end: 1 generation
[12] = group: developmental, developmental / developmental malformation / bone / [other] + developmental / developmental malformation / bone / fused + developmental / …
[13] = group: maternal, reproductive / reproductive performance / postimplantation loss / postimplantation loss + systemic / in life observation / body weight / …
[14] = group: developmental, developmental / developmental malformation / trunk / ecchymosis
[15] = group: developmental, developmental / developmental malformation / trunk / ecchymosis + developmental / developmental malformation / bone / incomplete …
[16] = group: maternal, systemic / in life observation / body weight / body weight gain + systemic / in life observation / food consumption / food consumption
[17] = group: maternal, systemic / in life observation / body weight / body weight gain + systemic / in life observation / food consumption / food consumption + …
[18] = group: cholinesterase, cholinesterase / cholinesterase / cholinesterase / erythrocyte cholinesterase (che) + cholinesterase / cholinesterase / cholinesterase / …
[19] = group: systemic, systemic / in life observation / body weight / body weight + systemic / in life observation / body weight / body weight gain + systemic / in…
[20] = group: developmental, developmental / developmental malformation / bone / absent + developmental / developmental malformation / bone / supernumerary
[21] = group: developmental, developmental / developmental malformation / bone / absent + developmental / developmental malformation / bone / supernumerary + systemic / …
[22] = group: maternal, systemic / in life observation / body weight / body weight gain
[23] = group: maternal, systemic / in life observation / body weight / body weight gain + systemic / in life observation / clinical signs / salivation + systemic / …
[24] = group: developmental, developmental / developmental landmark / anogenital distance (agd) / anogenital distance (agd)
[25] = group: offspring, systemic / organ weight / liver / absolute + systemic / organ weight / liver / nos + systemic / organ weight / epididymis / absolute + …
[26] = group: offspring, systemic / organ weight / testes / nos
[27] = group: parental, systemic / organ weight / testes / absolute
[28] = group: parental, systemic / organ weight / testes / absolute + systemic / organ weight / liver / nos + systemic / organ weight / testes / nos + systemic / …
[29] = group: reproductive, reproductive / reproductive performance / fertility / fertility
[30] = group: offspring, systemic / in life observation / body weight / offspring (pup) weight gain
[31] = group: parental, systemic / in life observation / body weight / body weight gain + systemic / in life observation / food consumption / food consumption
[32] = group: reproductive, reproductive / offspring survival early / dead fetuses / dead fetuses
[33] = group: developmental, developmental / developmental malformation / general / local edema + developmental / developmental malformation / great vessels / persistent…
[34] = group: maternal, reproductive / reproductive performance / preimplantation loss / preimplantation loss + reproductive / reproductive performance / …
[35] = group: developmental, developmental / developmental malformation / bone / exencephaly + developmental / developmental malformation / bone / fused + developmental…
[36] = group: maternal, systemic / organ weight / liver / relative to body weight
[37] = group: offspring, systemic / in life observation / body weight / offspring (pup) weight
[38] = group: parental, systemic / organ weight / liver / absolute + systemic / organ weight / liver / relative to body weight + systemic / organ weight / pituitary…
[39] = group: reproductive, reproductive / reproductive performance / reproductive performance other / NOS + reproductive / reproductive performance / gestational …

CCCCCCCCCCCCCC[N+](C)(C)CCC[Si](OC)(OC)OC.[Cl-]
LEL (rabbit [1]; [12]): 180 mg/kg/day | LOAEL (rabbit [1]; [12]): > 180 mg/kg/day | NEL (rabbit [1]; [12]): 90 mg/kg/day | NOAEL (rabbit [1]; [12]): ≥ 180 mg/kg/day | LEL (rabbit [1]; [13]): 180 mg/kg/day | LOAEL (rabbit [1]; [13]): > 180 mg/kg/day | NEL (rabbit [1]; [13]): 90 mg/kg/day | NOAEL (rabbit [1]; [13]): ≥ 180 mg/kg/day

CNC(=O)O/N=C/C(C)(C)SC [Aldicarb]
LEL (rat [2]; [14]): 0.25 mg/kg/day | LOAEL (rat [2]; [14]): 0.25 mg/kg/day | NEL (rat [2]; [15]): 0.125 mg/kg/day | NOAEL (rat [2]; [15]): 0.125 mg/kg/day | LEL (rat [2]; [16]): 0.25 mg/kg/day | LOAEL (rat [2]; [16]): 0.25 mg/kg/day | NEL (rat [2]; [17]): 0.125 mg/kg/day | NOAEL (rat [2]; [17]): 0.125 mg/kg/day | LEL (rat [3]; [18]): 0.47 mg/kg/day | LOAEL (rat [3]; [18]): 0.47 mg/kg/day | NEL (rat [3]; [18]): 0.047 mg/kg/day | NOAEL (rat [3]; [18]): 0.047 mg/kg/day | LEL (rat [3]; [19]): 1.44 mg/kg/day | LOAEL (rat [3]; [19]): > 1.44 mg/kg/day | NEL (rat [3]; [19]): 0.47 mg/kg/day | NOAEL (rat [3]; [19]): ≥ 1.44 mg/kg/day

C=C(C)C1CC=C(C)CC1 (stereo unspecified) [Limonene]
LEL (rat [4]; [20]): 500 mg/kg/day | LOAEL (rat [4]; [20]): 500 mg/kg/day | NEL (rat [4]; [21]): 250 mg/kg/day | NOAEL (rat [4]; [21]): 250 mg/kg/day | LEL (rat [4]; [22]): 500 mg/kg/day | LOAEL (rat [4]; [22]): 500 mg/kg/day | NEL (rat [4]; [23]): 250 mg/kg/day | NOAEL (rat [4]; [23]): 250 mg/kg/day

CC12CC1(C)C(=O)N(c1cc(Cl)cc(Cl)c1)C2=O (stereo unspecified) [Procymidone]
LEL (rat [5]; [24]): 12.5 mg/kg/day | LOAEL (rat [5]; [24]): 12.5 mg/kg/day | NEL (rat [5]; [24]): 3.5 mg/kg/day | NOAEL (rat [5]; [24]): 3.5 mg/kg/day | LOAEL (rat [5]; [16]): 125 mg/kg/day | LEL (rat [5]; [17]): 125 mg/kg/day | NEL (rat [5]; [17]): 12.5 mg/kg/day | NOAEL (rat [5]; [17]): 12.5 mg/kg/day | LOAEL (rat [6]; [25]): > 77.8 mg/kg/day | NOAEL (rat [6]; [25]): ≥ 77.8 mg/kg/day | LEL (rat [6]; [26]): 5.35 mg/kg/day | NEL (rat [6]; [26]): < 5.35 mg/kg/day | LEL (rat [6]; [27]): 22.7 mg/kg/day | LOAEL (rat [6]; [27]): 22.7 mg/kg/day | NEL (rat [6]; [28]): 4.52 mg/kg/day | NOAEL (rat [6]; [28]): 4.52 mg/kg/day | LEL (rat [6]; [29]): 73.2 mg/kg/day | LOAEL (rat [6]; [29]): 73.2 mg/kg/day | NEL (rat [6]; [29]): 24.1 mg/kg/day | NOAEL (rat [6]; [29]): 24.1 mg/kg/day

CCOCC(O)COc1ccc(NC(=O)CC[S+](C)C)cc1.Cc1ccc(S(=O)(=O)[O-])cc1 (stereo unspecified) [Suplatast tosylate]
LEL (rat [7]; [30]): 1800 mg/kg/day | LOAEL (rat [7]; [30]): > 1800 mg/kg/day | NEL (rat [7]; [30]): 600 mg/kg/day | NOAEL (rat [7]; [30]): ≥ 1800 mg/kg/day | LEL (rat [7]; [31]): 1800 mg/kg/day | LOAEL (rat [7]; [31]): > 1800 mg/kg/day | NEL (rat [7]; [31]): 600 mg/kg/day | NOAEL (rat [7]; [31]): ≥ 1800 mg/kg/day | LEL (rat [8]; [31]): 1800 mg/kg/day | LOAEL (rat [8]; [31]): > 1800 mg/kg/day | NEL (rat [8]; [31]): 600 mg/kg/day | NOAEL (rat [8]; [31]): ≥ 1800 mg/kg/day | LEL (rat [8]; [32]): 1800 mg/kg/day | LOAEL (rat [8]; [32]): > 1800 mg/kg/day | NEL (rat [8]; [32]): 600 mg/kg/day | NOAEL (rat [8]; [32]): ≥ 1800 mg/kg/day

COCCOCCOCCOC [Triethylene glycol dimethyl ether]
LOAEL (rabbit [9]; [33]): > 250 mg/kg/day | NEL (rabbit [9]; [33]): 75 mg/kg/day | NOAEL (rabbit [9]; [33]): ≥ 250 mg/kg/day | LEL (rabbit [9]; group: developmental, developmental / developmental malformation / spleen / small): 125 mg/kg/day | LOAEL (rabbit [9]; [34]): > 250 mg/kg/day | NEL (rabbit [9]; [34]): 125 mg/kg/day | NOAEL (rabbit [9]; [34]): ≥ 250 mg/kg/day | LEL (rabbit [9]; [22]): 175 mg/kg/day | LOAEL (mouse [10]; [35]): > 1000 mg/kg/day | NEL (mouse [10]; [35]): 250 mg/kg/day | NOAEL (mouse [10]; [35]): ≥ 1000 mg/kg/day | LEL (mouse [10]; group: developmental, systemic / in life observation / body weight / fetal weight): 500 mg/kg/day | LEL (mouse [10]; [36]): 500 mg/kg/day | LOAEL (mouse [10]; [36]): > 1000 mg/kg/day | NEL (mouse [10]; [36]): 250 mg/kg/day | NOAEL (mouse [10]; [36]): ≥ 1000 mg/kg/day | LEL (mouse [11]; [37]): 87.5 mg/kg/day | LOAEL (mouse [11]; [37]): > 175 mg/kg/day | NEL (mouse [11]; [37]): 43.8 mg/kg/day | NOAEL (mouse [11]; [37]): ≥ 175 mg/kg/day | LEL (mouse [11]; [38]): 175 mg/kg/day | LOAEL (mouse [11]; [38]): > 175 mg/kg/day | NEL (mouse [11]; [38]): 87.5 mg/kg/day | NOAEL (mouse [11]; [38]): ≥ 175 mg/kg/day | LEL (mouse [11]; group: reproductive, reproductive / reproductive performance / gestational length / gestational length): 87.5 mg/kg/day | LOAEL (mouse [11]; [39]): > 175 mg/kg/day | NEL (mouse [11]; [39]): 43.8 mg/kg/day | NOAEL (mouse [11]; [39]): ≥ 175 mg/kg/day
